Source: PubChem BioAssay (NCI)
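Abbreviation: GI50, concentration required for 50% inhibition of growth. At the TGI there is no net growth.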

Legend:
Test in all cases: NCI tumour cell line growth inhibition, 384-well format
MCF7 breast = tested on: MCF7 breast
SF-539 CNS = tested on: SF-539 CNS
HOP-62 NSCLC = tested on: HOP-62 NSCLC
NCI-H460 NSCLC = tested on: NCI-H460 NSCLC
HT29 colon = tested on: HT29 colon
MDA-MB-231 breast = tested on: MDA-MB-231 breast
T-47D breast = tested on: T-47D breast
MDA-MB-468 breast = tested on: MDA-MB-468 breast
SW-620 colon = tested on: SW-620 colon
HOP-92 NSCLC = tested on: HOP-92 NSCLC
M14 melanoma = tested on: M14 melanoma
OVCAR-3 ovarian = tested on: OVCAR-3 ovarian
RXF 393 renal = tested on: RXF 393 renal
U251 glioblastoma = tested on: U251 glioblastoma
SK-OV-3 ovarian = tested on: SK-OV-3 ovarian
A498 renal = tested on: A498 renal
SNB-19 CNS = tested on: SNB-19 CNS
CCRF-CEM leukemia = tested on: CCRF-CEM leukemia
HS 578T breast = tested on: HS 578T breast
UACC-257 melanoma = tested on: UACC-257 melanoma
OVCAR-4 ovarian = tested on: OVCAR-4 ovarian
SK-MEL-5 melanoma = tested on: SK-MEL-5 melanoma
K-562 leukemia = tested on: K-562 leukemia
EKVX NSCLC = tested on: EKVX NSCLC
NCI/ADR-RES ovarian = tested on: NCI/ADR-RES ovarian
MDA-MB-435 melanoma = tested on: MDA-MB-435 melanoma
LOX IMVI melanoma = tested on: LOX IMVI melanoma
ACHN renal = tested on: ACHN renal
CAKI-1 renal = tested on: CAKI-1 renal
UO-31 renal = tested on: UO-31 renal
SK-MEL-2 melanoma = tested on: SK-MEL-2 melanoma
DU-145 prostate = tested on: DU-145 prostate
SNB-75 CNS = tested on: SNB-75 CNS
786-0 renal = tested on: 786-0 renal
HL-60(TB) leukemia = tested on: HL-60(TB) leukemia
SF-295 CNS = tested on: SF-295 CNS
SK-MEL-28 melanoma = tested on: SK-MEL-28 melanoma
SF-268 CNS = tested on: SF-268 CNS
IGROV1 ovarian = tested on: IGROV1 ovarian
MOLT-4 leukemia = tested on: MOLT-4 leukemia
SR leukemia = tested on: SR leukemia
OVCAR-5 ovarian = tested on: OVCAR-5 ovarian
NCI-H522 lung = tested on: NCI-H522 lung
NCI-H226 lung = tested on: NCI-H226 lung
RPMI-8226 leukemia = tested on: RPMI-8226 leukemia
BT-549 breast = tested on: BT-549 breast
PC-3 prostate = tested on: PC-3 prostate

Question: What does the source list for C=CC(=O)N1CCC(CNc2ncnc(N)c2-c2ccc(Oc3ccccc3)cc2)CC1?
Answer: GI50 (MCF7 breast): 25.7 µM; TGI (MCF7 breast): 98.1 µM; GI50 (SF-539 CNS): 20.9 µM; TGI (SF-539 CNS): > 58.6 µM; GI50 (HOP-62 NSCLC): 20.7 µM; TGI (HOP-62 NSCLC): 48.3 µM; GI50 (NCI-H460 NSCLC): 19.6 µM; TGI (NCI-H460 NSCLC): 41.2 µM; GI50 (HT29 colon): 25 µM; TGI (HT29 colon): 63.1 µM; GI50 (MDA-MB-231 breast): 20.4 µM; TGI (MDA-MB-231 breast): 52.6 µM; GI50 (T-47D breast): 17.7 µM; TGI (T-47D breast): 46.6 µM; GI50 (MDA-MB-468 breast): 10.6 µM; TGI (MDA-MB-468 breast): 23.2 µM; GI50 (SW-620 colon): 18.6 µM; TGI (SW-620 colon): 34 µM; GI50 (HOP-92 NSCLC): 15.2 µM; TGI (HOP-92 NSCLC): 39.1 µM; GI50 (M14 melanoma): 29.6 µM; TGI (M14 melanoma): 77.4 µM; GI50 (OVCAR-3 ovarian): 16.1 µM; TGI (OVCAR-3 ovarian): 30.5 µM; GI50 (RXF 393 renal): 15.1 µM; TGI (RXF 393 renal): 36.6 µM; GI50 (U251 glioblastoma): 18.6 µM; TGI (U251 glioblastoma): 40.6 µM; GI50 (SK-OV-3 ovarian): 16.2 µM; TGI (SK-OV-3 ovarian): 44.9 µM; GI50 (A498 renal): 17.2 µM; TGI (A498 renal): 37 µM; GI50 (SNB-19 CNS): 23.4 µM; TGI (SNB-19 CNS): 71.7 µM; GI50 (CCRF-CEM leukemia): 17.2 µM; TGI (CCRF-CEM leukemia): 31 µM; GI50 (HS 578T breast): 11.4 µM; TGI (HS 578T breast): 24.5 µM; GI50 (UACC-257 melanoma): 18.1 µM; TGI (UACC-257 melanoma): 34.2 µM; GI50 (OVCAR-4 ovarian): 21.2 µM; TGI (OVCAR-4 ovarian): 69.7 µM; GI50 (SK-MEL-5 melanoma): 16.1 µM; TGI (SK-MEL-5 melanoma): 30.6 µM; GI50 (K-562 leukemia): 15.2 µM; TGI (K-562 leukemia): 29.5 µM; GI50 (EKVX NSCLC): 20.1 µM; TGI (EKVX NSCLC): 48.7 µM; GI50 (NCI/ADR-RES ovarian): 15.9 µM; TGI (NCI/ADR-RES ovarian): 34.5 µM; GI50 (MDA-MB-435 melanoma): 28.7 µM; TGI (MDA-MB-435 melanoma): > 73.3 µM; GI50 (LOX IMVI melanoma): 17.2 µM; TGI (LOX IMVI melanoma): 31 µM; GI50 (ACHN renal): 25.4 µM; TGI (ACHN renal): 66.4 µM; GI50 (CAKI-1 renal): 16.9 µM; TGI (CAKI-1 renal): 43.1 µM; GI50 (UO-31 renal): 22.3 µM; TGI (UO-31 renal): > 100 µM; GI50 (SK-MEL-2 melanoma): 20.5 µM; TGI (SK-MEL-2 melanoma): 36.9 µM; GI50 (DU-145 prostate): 19.5 µM; TGI (DU-145 prostate): 46.4 µM; GI50 (SNB-75 CNS): 15 µM; TGI (SNB-75 CNS): 36.5 µM; GI50 ([…]-0 renal): 18.7 µM; TGI (786-0 renal): 42.9 µM; GI50 (HL-60(TB) leukemia): 11.8 µM; TGI (HL-60(TB) leukemia): 24 µM; GI50 (SF-295 CNS): 26.1 µM; TGI (SF-295 CNS): > 71.1 µM; GI50 (SK-MEL-28 melanoma): 36.4 µM; TGI (SK-MEL-28 melanoma): > 86.9 µM; GI50 (SF-268 CNS): 17 µM; TGI (SF-268 CNS): 37.9 µM; GI50 (IGROV1 ovarian): 14.6 µM; TGI (IGROV1 ovarian): 28.3 µM; GI50 (MOLT-4 leukemia): 14.5 µM; TGI (MOLT-4 leukemia): 27.7 µM; GI50 (SR leukemia): 8.25 µM; TGI (SR leukemia): 21.3 µM; GI50 (OVCAR-5 ovarian): 38.1 µM; TGI (OVCAR-5 ovarian): > 100 µM; GI50 (NCI-H522 lung): 4.12 µM; TGI (NCI-H522 lung): 15.7 µM; GI50 (NCI-H226 lung): 15.6 µM; TGI (NCI-H226 lung): 36 µM; GI50 (RPMI-8226 leukemia): 9.92 µM; TGI (RPMI-8226 leukemia): 22.3 µM; GI50 (BT-549 breast): 14.1 µM; TGI (BT-549 breast): 28.6 µM; GI50 (PC-3 prostate): 18.5 µM; TGI (PC-3 prostate): 41.2 µM
